Tested on: microfilariae of Dirofilaria immitis
Assay: Dirofilaria immitis, Microfilaria (DiMF) Assay
Type: cell-based
Conditions: in vitro, stage (microfilaria or L4) not given, class A/B/C, read-out: D. immitis activity level (IC50 or MED)
Method: Heartworm Screen Dirofilaria immitis (D. immitis)
Dirofilaria immitis, Microfilaria (DiMF) Assay.
Compounds were dissolved and serially diluted in DMSO. Aliquots were spotted to the empty wells of assay plates. Media and microfilariae of Dirofilaria immitis were added to each well to dilute the test compounds to the desired concentrations. Assay plates were incubated for approximately 72 hours, and the larvae in each well were observed microscopically for drug effect. Microfilariae in each well were assessed subjectively for survival or paralysis, and results were reported as Minimum Effective Dose (MED).
Active and selective (DiL4 vs. DiMF potency) example compounds were subsequently evaluated in heartworm positive dog studies to correlate the in vitro selectivity profile with in vivo effects on circulating microfilariae.

2-(3-(5-isoprop- oxypyridin-2- yl)-1,2,4- thiadiazol-5- ylamino)-N,N- dimethyl-5- (trifluoromethyl) nicotinamide [Compound 250]
IC50: < 200 nM

Source: patent publication US11505548B2, “Heterocyclic compounds and their use for treatment of helminthic infections and diseases” (Celgene Corporation, priority 2019, dated 2022)
